Measurements: patent US6448294B1, “Biphenyl compounds and their use as oestrogenic agents” (Aventis Pharma S.A., priority 1996, dated 2002)

Biological target: T1, recombinant human oestrogen receptor (Homo sapiens, UniProt P03372)
T1 construct: made in house; host or cells: SF9 insect cells (ATCC CRL1711), baculovirus
T1 sequence (P03372 1-595): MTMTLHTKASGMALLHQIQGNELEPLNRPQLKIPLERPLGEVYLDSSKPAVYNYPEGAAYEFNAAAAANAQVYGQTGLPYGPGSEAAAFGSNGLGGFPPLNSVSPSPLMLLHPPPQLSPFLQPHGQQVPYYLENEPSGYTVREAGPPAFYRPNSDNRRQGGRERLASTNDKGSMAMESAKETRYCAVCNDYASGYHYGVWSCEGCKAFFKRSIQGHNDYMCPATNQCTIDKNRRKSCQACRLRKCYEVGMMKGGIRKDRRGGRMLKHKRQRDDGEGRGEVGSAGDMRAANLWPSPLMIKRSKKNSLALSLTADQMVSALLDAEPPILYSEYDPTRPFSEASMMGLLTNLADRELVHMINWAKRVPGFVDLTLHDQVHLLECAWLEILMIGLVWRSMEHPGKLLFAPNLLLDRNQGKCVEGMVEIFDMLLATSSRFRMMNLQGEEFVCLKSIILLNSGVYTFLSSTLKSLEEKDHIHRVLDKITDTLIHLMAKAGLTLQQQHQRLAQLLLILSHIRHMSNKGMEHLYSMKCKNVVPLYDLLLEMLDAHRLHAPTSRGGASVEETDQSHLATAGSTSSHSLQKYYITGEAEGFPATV
Experiment: Human oestrogen receptor (HOR) competitive binding with tritiated oestradiol, relative bond affinity (RBA)
Settings: RBA=100(CH)/(CX), incubation at 0° C. for 24 hours, cytosolic extract of SF9 cells
Excerpt: A cytosolic extract of SF9 cells containing the recombinant human oestrogen receptor is obtained by overexpression in an insect-Baculovirus cell system, according to the general methodology described by N. R. WEBB et al. (Journal of Methods in Cell and Molecular Biology, (1990) Vol.2 No. 4, 173-188) and the application of which is described for the expression of human hormonal receptors, for example the human glucocorticoid receptor (G. SRINIVASAN et al. Molecular Endocrinology (1990) vol 4 No. 2 209-216).
The BaculoGold Transfection Kit (PharMingen, reference 21000K) is used to generate the recombinant baculovirus containing the cDNA fragment described in the expression vector HEGO by L. TORA et al. (The EMBO Journal (1989) vol. 8 No. 7 1981-1986), containing the region coding for the wild-type human oestrogen receptor with a glycine in position 400. […]
The supernatant is incubated at 0° C. for 24 hours with a constant concentration (T) of tritiated oestradiol in the presence of increasing concentrations of either unlabelled oestradiol (0-1000×10^−9M), or of unlabelled product to be tested (0-25000×10^−9M). The concentration of bound tritiated oestradiol (B) is then measured in each incubate by the technique of adsorption with carbon dextran. […]
The relative bond affinity (RBA) of the test product is calculated by the equation: RBA=100(CH)/(CX).

Row | Relative bond affinity (RBA), HOR, oestradiol = 100, 24 hours | Compound
1 | 49 | Oc1ccc(-c2ccc3cc(O)ccc3c2Cl)cc1 [Example 2, 5-Chloro-6-(4-hydroxyphenyl)-2-naphthalenol]
2 | 28 | CN(C)CCOc1ccc(-c2c(-c3ccc(O)cc3)ccc3cc(O)ccc23)cc1 [Example 1, 5-[-4-[2-(Dimethylamino)ethoxy]phenyl] 6-(4-Hydroxyphenyl) 2-Naphthalenol]
